# Assay results: patent publication US8912206B2, “Pyrimidine ether derivatives and methods of use thereof” (Merck Sharp & Dohme Corp., priority 2009, dated 2014)
# Target: T1, human GPR119 (Homo sapiens, UniProt Q8TDV5)
# T1 construct: expressed in transfected cells; host or cells: HEK293
# T1 sequence (Q8TDV5 1-335): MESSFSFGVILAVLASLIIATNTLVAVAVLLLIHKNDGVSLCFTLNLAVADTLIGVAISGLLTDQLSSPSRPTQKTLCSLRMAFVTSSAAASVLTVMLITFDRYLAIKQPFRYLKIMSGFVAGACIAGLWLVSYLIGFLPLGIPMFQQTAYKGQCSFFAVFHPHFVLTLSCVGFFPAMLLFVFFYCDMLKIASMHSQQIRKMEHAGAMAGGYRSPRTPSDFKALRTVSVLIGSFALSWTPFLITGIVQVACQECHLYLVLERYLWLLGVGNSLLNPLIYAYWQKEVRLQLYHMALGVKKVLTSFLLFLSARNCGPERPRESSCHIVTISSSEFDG
# Assay: cAMP assay (LANCE cAMP kit), activation of GPR119
# Type: cell-based
# Settings: HEK293 cells expressing human GPR119, 30 minutes incubation
# Experimental: The ability of illustrative compounds of the invention to activate GPR119 and stimulate increases in cAMP levels was determined using the LANCE™ cAMP kit (Perkin Elmer). HEK293 cells expressing human GPR119 were maintained in culture flasks at 37° C./5% CO2 in DMEM containing 10% fetal bovine serum, 100 U/ml Pen/Strep, and 0.5 mg/ml geneticin. The media was changed to Optimem and cells were incubated for about 15 hours at 37° C./5% CO2. The Optimem was then aspirated and the cells were removed from the flasks using room temperature Hank's balanced saline solution (HBSS). The cells were pelleted using centrifugation (1300 rpm, 7 minutes, room temperature), then resuspended in stimulation buffer (HBSS, 0.1% BSA, 5 mM HEPES, 15 μM RO-20) at 2.5×10^6 cells/mL. Alexa Fluor 647-anti cAMP antibody (1:100) was then added to the cell suspension and incubated for 30 minutes. A representative Pyrimidine Ether Derivative (6 μl at 2× concentration) in stimulation buffer containing 2% DMSO were then added to white 384 well Matrix plates. Cell suspension mix (6 μl) was added to each well and incubated with the Pyrimidine Ether Derivative for 30 minutes. A cAMP standard curve was also created in each assay according to the kit protocol. Standard concentrations of cAMP in stimulation buffer (6 μl) were added to white 384 well plates. Subsequently, 6 μl of 1:100 anti-cAMP antibody was added to each well. Following the 30 minute incubation period, 12 μl of detection mix (included in kit) was added to all wells and incubated for 2-3 hours at room temperature. Fluorescence was detected on the plates using an Envision instrument. The level of cAMP in each well is determined by extrapolation from the cAMP standard curve.
row,SMILES,EC50 [nM]
1,CC(C)(C)OC(=O)N1CCC(Oc2ncnc(OC3C4COCC3CN(C(=O)OC3(C)CC3)C4)c2F)CC1 (stereo not drawn) [Compound 1],500 to 1000
2,CC(C)S(=O)(=O)N1CCC(Oc2ncnc(OC3C4COCC3CN(C(=O)OC3(C)CC3)C4)c2F)CC1 (stereo not drawn) [Compound 5],< 100
3,CC1(OC(=O)N2CC3COCC(C2)C3Oc2ncnc(OC3CCN(S(=O)(=O)C(F)(F)F)CC3)c2F)CC1 (stereo not drawn) [Compound 6],500 to 1000
4,CC1(OC(=O)N2CC3COCC(C2)C3Oc2ncnc(OC3CCN(S(=O)(=O)C4CCCC4)CC3)c2F)CC1 (stereo not drawn) [Compound 7],100 to 200
5,CS(=O)(=O)N1CCC(Oc2ncnc(OC3C4COCC3CN(c3ncc(Cl)cn3)C4)c2F)CC1 (stereo not drawn) [Compound 10],< 100

# Continued, values first:
row,EC50 [nM],SMILES
1,100 to 200,CC1(OC(=O)N2CC3COCC(C2)C3Oc2ncnc(OC3CCN(S(C)(=O)=O)CC3)c2F)CC1 (stereo not drawn) [Compound 2]
2,< 100,CC1(OC(=O)N2CC3COCC(C2)C3Oc2ncnc(OC3CCN(S(=O)(=O)CCC(F)(F)F)CC3)c2F)CC1 (stereo not drawn) [Compound 3]
3,100 to 200,CC1(OC(=O)N2CC3COCC(C2)C3Oc2ncnc(OC3CCN(S(=O)(=O)C4CC4)CC3)c2F)CC1 (stereo not drawn) [Compound 4]
4,100 to 200,COCCS(=O)(=O)N1CCC(Oc2ncnc(OC3C4COCC3CN(C(=O)OC3(C)CC3)C4)c2F)CC1 (stereo not drawn) [Compound 8]
5,500 to 1000,CC(C)C(=O)N1CCC(Oc2ncnc(OC3C4COCC3CN(C(=O)OC3(C)CC3)C4)c2F)CC1 (stereo not drawn) [Compound 9]
6,< 100,CCCS(=O)(=O)N1CCC(Oc2ncnc(OC3C4COCC3CN(C(=O)OC3(C)CC3)C4)c2F)CC1 (stereo not drawn) [Compound 11]
7,< 100,CCS(=O)(=O)N1CCC(Oc2ncnc(OC3C4COCC3CN(C(=O)OC3(C)CC3)C4)c2F)CC1 (stereo not drawn) [Compound 12]
